{"source": "PubChem BioAssay AID1963832", "about": "(Molecular Pharmacology Branch, DTP, NCI, 2024)", "test_system": "885724-159-R-J1-PDC complex spheroid viability", "test": "Anticancer human tumor 885724-159-R-J1-PDC patient-derived pancreatic adenocarcinoma cell line growth inhibition [POLQ]", "settings": "for IC50: curve of first compound; for viability, T/C: stronger effect = lower value", "outline": "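Complex spheroid viability model combining PDC tumour cells with endothelial (HUVEC) and MSC stromal cells. Novobiocin, ART-558 or RP6685 were tested singly and in combination with standard and investigational anticancer drugs. Each was titrated in half-log steps from near clinical Cmax, or from 10 microM where Cmax was unknown.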", "key": {"[1]": {"settings": "second compound 0.0316 µM, first compound 0.0316 µM"}, "[2]": {"settings": "second compound 0.0316 µM, first compound 0.1 µM"}, "[3]": {"settings": "second compound 0.0316 µM, first compound 0.316 µM"}, "[4]": {"settings": "second compound 0.0316 µM, first compound 1 µM"}, "[5]": {"settings": "second compound 0.0316 µM, first compound 3.16 µM"}, "[6]": {"settings": "second compound 0.0316 µM, first compound 10 µM"}, "[7]": {"settings": "second compound 0.1 µM, first compound 0.0316 µM"}, "[8]": {"settings": "second compound 0.1 µM, first compound 0.1 µM"}, "[9]": {"settings": "second compound 0.1 µM, first compound 0.316 µM"}, "[10]": {"settings": "second compound 0.1 µM, first compound 1 µM"}, "[11]": {"settings": "second compound 0.1 µM, first compound 3.16 µM"}, "[12]": {"settings": "second compound 0.1 µM, first compound 10 µM"}, "[13]": {"settings": "second compound 0.316 µM, first compound 0.0316 µM"}, "[14]": {"settings": "second compound 0.316 µM, first compound 0.1 µM"}, "[15]": {"settings": "second compound 0.316 µM, first compound 0.316 µM"}, "[16]": {"settings": "second compound 0.316 µM, first compound 1 µM"}, "[17]": {"settings": "second compound 0.316 µM, first compound 3.16 µM"}, "[18]": {"settings": "second compound 0.316 µM, first compound 10 µM"}, "[19]": {"settings": "second compound 1 µM, first compound 0.0316 µM"}, "[20]": {"settings": "second compound 1 µM, first compound 0.1 µM"}, "[21]": {"settings": "second compound 1 µM, first compound 0.316 µM"}, "[22]": {"settings": "second compound 1 µM, first compound 1 µM"}, "[23]": {"settings": "second compound 1 µM, first compound 3.16 µM"}, "[24]": {"settings": "second compound 1 µM, first compound 10 µM"}, "[25]": {"settings": "second compound 3.16 µM, first compound 0.0316 µM"}, "[26]": {"settings": "second compound 3.16 µM, first compound 0.1 µM"}, "[27]": {"settings": "second compound 3.16 µM, first compound 0.316 µM"}, "[28]": {"settings": "second compound 3.16 µM, first compound 1 µM"}, "[29]": {"settings": "second compound 3.16 µM, first compound 3.16 µM"}, "[30]": {"settings": "second compound 3.16 µM, first compound 10 µM"}, "[31]": {"settings": "second compound 10 µM, first compound 0.0316 µM"}, "[32]": {"settings": "second compound 10 µM, first compound 0.1 µM"}, "[33]": {"settings": "second compound 10 µM, first compound 0.316 µM"}, "[34]": {"settings": "second compound 10 µM, first compound 1 µM"}, "[35]": {"settings": "second compound 10 µM, first compound 3.16 µM"}, "[36]": {"settings": "second compound 10 µM, first compound 10 µM"}}}
{"compound": "CCc1cc2c(N3CCc4c(cc(Cn5ccnc5)cc4-c4cn(C)nc4C(F)(F)F)C3=O)ccnc2c(OC)n1", "note": "+ Cc1cccc(N(C)C(=O)C2C(O)CCN2c2nc(C)cc(C(F)(F)F)c2C#N)c1;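 note: spheroids exposed to compounds for 7 days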", "values": [{"measurement": "IC50", "setting": "second compound 0.0316 µM", "value": "> 10", "unit": "µM"}, {"measurement": "IC50", "setting": "second compound 0.1 µM", "value": "> 10", "unit": "µM"}, {"measurement": "IC50", "setting": "second compound 0.316 µM", "value": "> 10", "unit": "µM"}, {"measurement": "IC50", "setting": "second compound 1 µM", "value": "> 10", "unit": "µM"}, {"measurement": "IC50", "setting": "second compound 3.16 µM", "value": "> 10", "unit": "µM"}, {"measurement": "IC50", "setting": "second compound 10 µM", "value": "> 10", "unit": "µM"}, {"measurement": "viability, T/C", "setting": "[1]", "value": 94, "unit": "%"}, {"measurement": "viability, T/C", "setting": "[2]", "value": 82.9, "unit": "%"}, {"measurement": "viability, T/C", "setting": "[3]", "value": 81.8, "unit": "%"}, {"measurement": "viability, T/C", "setting": "[4]", "value": 89.2, "unit": "%"}, {"measurement": "viability, T/C", "setting": "[5]", "value": 74.3, "unit": "%"}, {"measurement": "viability, T/C", "setting": "[6]", "value": 78.4, "unit": "%"}, {"measurement": "viability, T/C", "setting": "[7]", "value": 104, "unit": "%"}, {"measurement": "viability, T/C", "setting": "[8]", "value": 81.7, "unit": "%"}, {"measurement": "viability, T/C", "setting": "[9]", "value": 88.6, "unit": "%"}, {"measurement": "viability, T/C", "setting": "[10]", "value": 83.6, "unit": "%"}, {"measurement": "viability, T/C", "setting": "[11]", "value": 84.7, "unit": "%"}, {"measurement": "viability, T/C", "setting": "[12]", "value": 63.8, "unit": "%"}, {"measurement": "viability, T/C", "setting": "[13]", "value": 96, "unit": "%"}, {"measurement": "viability, T/C", "setting": "[14]", "value": 89.9, "unit": "%"}, {"measurement": "viability, T/C", "setting": "[15]", "value": 84.4, "unit": "%"}, {"measurement": "viability, T/C", "setting": "[16]", "value": 89.1, "unit": "%"}, {"measurement": "viability, T/C", "setting": "[17]", "value": 82.5, "unit": "%"}, {"measurement": "viability, T/C", "setting": "[18]", "value": 59.5, "unit": "%"}, {"measurement": "viability, T/C", "setting": "[19]", "value": 83.8, "unit": "%"}, {"measurement": "viability, T/C", "setting": "[20]", "value": 84.7, "unit": "%"}, {"measurement": "viability, T/C", "setting": "[21]", "value": 92.4, "unit": "%"}, {"measurement": "viability, T/C", "setting": "[22]", "value": 79.7, "unit": "%"}, {"measurement": "viability, T/C", "setting": "[23]", "value": 85.5, "unit": "%"}, {"measurement": "viability, T/C", "setting": "[24]", "value": 62.8, "unit": "%"}, {"measurement": "viability, T/C", "setting": "[25]", "value": 94.2, "unit": "%"}, {"measurement": "viability, T/C", "setting": "[26]", "value": 85.5, "unit": "%"}, {"measurement": "viability, T/C", "setting": "[27]", "value": 86.6, "unit": "%"}, {"measurement": "viability, T/C", "setting": "[28]", "value": 89.7, "unit": "%"}, {"measurement": "viability, T/C", "setting": "[29]", "value": 79.4, "unit": "%"}, {"measurement": "viability, T/C", "setting": "[30]", "value": 72.6, "unit": "%"}, {"measurement": "viability, T/C", "setting": "[31]", "value": 92.8, "unit": "%"}, {"measurement": "viability, T/C", "setting": "[32]", "value": 83.7, "unit": "%"}, {"measurement": "viability, T/C", "setting": "[33]", "value": 86.4, "unit": "%"}, {"measurement": "viability, T/C", "setting": "[34]", "value": 87.8, "unit": "%"}, {"measurement": "viability, T/C", "setting": "[35]", "value": 72.7, "unit": "%"}, {"measurement": "viability, T/C", "setting": "[36]", "value": 63.5, "unit": "%"}]}
{"compound": "O=C(c1cc(Cc2n[nH]c(=O)c3ccccc23)ccc1F)N1CCN(C(=O)C2CC2)CC1", "note": "+ COC1C(OC(N)=O)C(O)C(Oc2ccc3c(O)c(NC(=O)c4ccc(O)c(CC=C(C)C)c4)c(=O)oc3c2C)OC1(C)C", "values": [{"measurement": "IC50", "setting": "second compound 0.0316 µM", "value": "> 10", "unit": "µM"}, {"measurement": "IC50", "setting": "second compound 0.1 µM", "value": "> 10", "unit": "µM"}, {"measurement": "IC50", "setting": "second compound 0.316 µM", "value": "> 10", "unit": "µM"}, {"measurement": "IC50", "setting": "second compound 1 µM", "value": "> 10", "unit": "µM"}, {"measurement": "IC50", "setting": "second compound 3.16 µM", "value": "> 10", "unit": "µM"}, {"measurement": "IC50", "setting": "second compound 10 µM", "value": "> 10", "unit": "µM"}, {"measurement": "viability, T/C", "setting": "[1]", "value": 101, "unit": "%"}, {"measurement": "viability, T/C", "setting": "[2]", "value": 93.9, "unit": "%"}, {"measurement": "viability, T/C", "setting": "[3]", "value": 91.4, "unit": "%"}, {"measurement": "viability, T/C", "setting": "[4]", "value": 88.3, "unit": "%"}, {"measurement": "viability, T/C", "setting": "[5]", "value": 90.8, "unit": "%"}, {"measurement": "viability, T/C", "setting": "[6]", "value": 78.9, "unit": "%"}, {"measurement": "viability, T/C", "setting": "[7]", "value": 97.4, "unit": "%"}, {"measurement": "viability, T/C", "setting": "[8]", "value": 85.9, "unit": "%"}, {"measurement": "viability, T/C", "setting": "[9]", "value": 86, "unit": "%"}, {"measurement": "viability, T/C", "setting": "[10]", "value": 88, "unit": "%"}, {"measurement": "viability, T/C", "setting": "[11]", "value": 86.3, "unit": "%"}, {"measurement": "viability, T/C", "setting": "[12]", "value": 83.9, "unit": "%"}, {"measurement": "viability, T/C", "setting": "[13]", "value": 94.8, "unit": "%"}, {"measurement": "viability, T/C", "setting": "[14]", "value": 91.4, "unit": "%"}, {"measurement": "viability, T/C", "setting": "[15]", "value": 90.3, "unit": "%"}, {"measurement": "viability, T/C", "setting": "[16]", "value": 89.2, "unit": "%"}, {"measurement": "viability, T/C", "setting": "[17]", "value": 85.5, "unit": "%"}, {"measurement": "viability, T/C", "setting": "[18]", "value": 75.7, "unit": "%"}, {"measurement": "viability, T/C", "setting": "[19]", "value": 85.8, "unit": "%"}, {"measurement": "viability, T/C", "setting": "[20]", "value": 89.6, "unit": "%"}, {"measurement": "viability, T/C", "setting": "[21]", "value": 89.5, "unit": "%"}, {"measurement": "viability, T/C", "setting": "[22]", "value": 95.8, "unit": "%"}, {"measurement": "viability, T/C", "setting": "[23]", "value": 85.4, "unit": "%"}, {"measurement": "viability, T/C", "setting": "[24]", "value": 79.9, "unit": "%"}, {"measurement": "viability, T/C", "setting": "[25]", "value": 96.4, "unit": "%"}, {"measurement": "viability, T/C", "setting": "[26]", "value": 85.7, "unit": "%"}, {"measurement": "viability, T/C", "setting": "[27]", "value": 104, "unit": "%"}, {"measurement": "viability, T/C", "setting": "[28]", "value": 85.5, "unit": "%"}, {"measurement": "viability, T/C", "setting": "[29]", "value": 92.8, "unit": "%"}, {"measurement": "viability, T/C", "setting": "[30]", "value": 79.7, "unit": "%"}, {"measurement": "viability, T/C", "setting": "[31]", "value": 96.3, "unit": "%"}, {"measurement": "viability, T/C", "setting": "[32]", "value": 83, "unit": "%"}, {"measurement": "viability, T/C", "setting": "[33]", "value": 92.4, "unit": "%"}, {"measurement": "viability, T/C", "setting": "[34]", "value": 85.1, "unit": "%"}, {"measurement": "viability, T/C", "setting": "[35]", "value": 91.1, "unit": "%"}, {"measurement": "viability, T/C", "setting": "[36]", "value": 69.9, "unit": "%"}]}
